Results from publication PMC10587159, “Biosynthesis and engineering of the nonribosomal peptides with a C-terminal putrescine” (Nature Communications, 2023).

Test system: A1 domain of CsA1T1 (GdnA)
Test: Adenylation activity of A1 domain (ATP/PPi exchange, pyrophosphate production assay)
Assay type: biochemical, Schlegelella brevitalea DSM 7029
Conditions: for relative activity of A1 domain for the activation of amino acids, Average: CsA1T1 1 μM, 10 mM amino acid, 2.5 mM ATP, pH 7.6, A360, L-Met = 100%, mean of n = 3; for selectivity of A1 domain for amino acids in words: response to reviewers on Supplementary Fig. 6a
Method: For pyrophosphate production assays, the reaction system contains 10 mM amino acid substrates, 2.5 mM ATP (Solarbio), 0.2 mM MESG (Medchemexpress), 1 U/mL purine nucleoside phosphorylase (Shanghai yuanye Bio-Technology Co., Ltd), 0.4 U/mL inorganic pyrophosphatase (Sigma), 150 mM hydroxylamine (Sigma) and 1 μM proteins in 100 μL buffer (50 mM Tris, 300 mM NaCl and 5 mM MgCl2, pH 7.6). The value was read at A360 in a SpectraMax M5 plate reader (Molecular Devices, Sunnyvale, California) in 96 well, clear-bottomed plates (Corning). A360 values were converted to pyrophosphate release, by comparing with a standard curve (KH2PO4 from 2 μM to 128 μM) for known quantities of pyrophosphate.

Row | Structure (SMILES) | relative activity of A1 domain for the activation of amino acids, Average | selectivity of A1 domain for amino acids in words
1 | N[C@@H](CCC(=O)O)C(=O)O [L-Glu] | 43.4238% | broad selectivity
2 | N[C@@H](Cc1c[nH]cn1)C(=O)O [L-His] | 1.516% | –
3 | CC[C@H](C)[C@H](N)C(=O)O [L-Ile] | 8.11% | weaker selectivity
4 | CC(C)C[C@H](N)C(=O)O [L-Leu] | 48.0078% | –
5 | NCCCC[C@H](N)C(=O)O [L-Lys] | – | no activity
6 | C[S+]([O-])CC[C@H](N)C(=O)O (stereo partly drawn) [L-MetO] | 74.5064% | –
7 | CSCC[C@H](N)C(=O)O [L-Met] | 100% | –
8 | N[C@@H](Cc1ccccc1)C(=O)O [L-Phe] | 16.3434% | –
9 | N[C@@H](CO)C(=O)O [L-Ser] | 10.8427% | –
10 | C[C@@H](O)[C@H](N)C(=O)O [L-Thr] | 9.697% | –
11 | N[C@@H](Cc1c[nH]c2ccccc12)C(=O)O [L-Trp] | 8.022% | –
12 | CC(C)[C@H](N)C(=O)O [L-Val] | 4.884% | weaker selectivity
